What all share (format): in vivo
The test system of assay [1] is mice. The assay is described as follows: tetrabenazine induced ptosis assay in mice (antidepressant activity). To be noted: for ED50: Mus musculus, ip, i.p. dose effecting calculated 50% inhibition of tetrabenazine-induced ptosis in mice, read-out: ANTI-DEPRESSANT ACTIVITY (% Inhibition of Ptosis) ED50 (mg/kg,i.p.). The method, then:
In this procedure, male mice (Charles River, CD-1), weighing about 20 to 39 g, are used in test groups of five animals. Test compounds are dissolved, or suspended with 1 drop of Tween-80, in distilled water and administered to the animals in volumes of 10 cc per kg of body weight. […] Tetrabenazine solution and the solvent used to dissolve, or suspend, the test compounds are administered by the same route and at the same intervals as the test compounds to a control group. […] The total score for each group of 5 animals will therefore vary from 0 to 20; these scores are used as the indications of the activity of the test compound. The vehicle-control group score is used as a determinate of the validity of each test.

Another assay has as its system male mouse. The assay is described as follows: supramaximal electroshock (SES) assay (anticonvulsant activity). The note with it: for ED50: ip, read-out: ANTICONVULSANT ACTIVITY (% Inhibition of Convulsion) ED50 (mg/kg,i.p.).
For assay [2], the system named is mice. The assay is described as follows: phenyl-p-benzoquinone writhing assay in mice (analgesia). To be noted: Mus musculus, sc. For orientation: Writhing tests count abdominal constrictions after an irritant is injected.
[3] abbreviates: male mouse, at peak activity time, protection against extensor tonus.
Setting [4] is: calculated s.c. dose effecting approximately 50% inhibition of writhing in mice, at peak time, read-out: ANALGESIC ACTIVITY (% Inhibition of Writhing) ED50.
The mark [5] stands for this setting: read-out: ANALGESIC ACTIVITY (% Inhibition of Writhing) ED50 (mg/kg).

Each structure is given as a SMILES string. Structures can show the parent of a compound that is named as a salt. Where two headings read alike, the source gives them in different places.

For the compound `Fc1ccc(-n2nc(N3CCNCC3)c3ccccc32)cc1` [1-(4-Fluorophenyl)-3-(1-piperazinyl)-1H-indazole], the ED50 in the assay on mice [1] was 17.3 mg/kg.

In the case of `NC(=O)N1CCN(c2nn(-c3ccc(F)cc3)c3ccccc23)CC1` [4-[1-(4-Fluorophenyl)-1H-indazol-3-yl]-1-piperazine carboxamide], the ED50 in the assay on male mouse (setting [3]) amounted to 22.7 mg/kg.

As to `CCC1(c2ccccc2)C(=O)NC(=O)NC1=O` [phenobarbitol, reference compound], the ED50 in the assay on male mouse (Mus musculus) worked out at 8.4 mg/kg.

In the case of `NC(=O)N1CCN(c2nn(-c3ccccc3Cl)c3ccccc23)CC1` [4-[1-(2-chlorophenyl)-1H-indazol-3-yl]-1-piperazine carboxamide hemifumarate], the ED50 in the assay with male mouse (setting [3]) turned out to be 38.9 mg/kg.

For `CN1CCN(c2nn(-c3ccccc3)c3ccccc23)CC1.Cl` [1-Phenyl-3-(4-methyl-1-piperazinyl)-1H-indazole hydrochloride], the figures for the ED50 in the assay on male mouse (setting [3]), with mice [2] (setting [4]) and with mice [1] were 14.6 mg/kg, 1.6 mg/kg and 11.1 mg/kg, respectively.

Consider `CN(C)CCCN1c2ccccc2CCc2ccccc21` [imipramine, reference compound], for which, in the assay on mice [1] (read-out: ANTI-[…] (% Inhibition of Ptosis) ED50 (mg/kg,i.p.)), the ED50 is 1.3 mg/kg.

In the case of `CP(C)(=O)CN1CCN(c2nn(-c3ccccc3)c3ccccc23)CC1` [3-[4-(Dimethylphosphinylmethyl)-1-piperazinyl]-1-phenyl-1H-indazole], in the assay with male mouse (setting [3]), the ED50 came out at 24.3 mg/kg.

`CN1CCN(c2nn(-c3ccc(F)cc3)c3ccccc23)CC1.O=C(O)/C=C/C(=O)O` [1-(4-Fluorophenyl)-3-(4-methyl-1-piperazinyl)-1H-indazole fumarate]: the ED50 in the assay with male mouse (setting [3]) is 12.9 mg/kg; in the assay on mice [2] (setting [4]), 0.8 mg/kg. Moreover, the “% inhibition of ptosis at indicated screening dosage (i.p.)” value with mice [1] (20 mg/kg, i.p., mice) came out at 65% @ 20 mg/kg*.

As to `CCC(=O)O[C@](Cc1ccccc1)(c1ccccc1)[C@H](C)CN(C)C` [propoxyphene, reference compound], the ED50 in the assay with mice [2] (setting [5]) is 3.9 mg/kg.

Consider `CN1CCN(c2nn(-c3ccc(C(F)(F)F)cc3)c3ccccc23)CC1.O=C(O)/C=C/C(=O)O` [3-(4-Methyl-1-piperazinyl)-1-[4-(trifluoromethyl)phenyl]-1H-indazole fumarate], for which, in the assay with male mouse (setting [3]), the ED50 worked out at 27 mg/kg.

Take `CCN1CCN(c2nn(-c3ccc(C(F)(F)F)cc3)c3ccccc23)CC1` [3-(4-Ethyl-1-piperazinyl)-1-[4-trifluoromethyl)phenyl]-1H-indazole fumarate]: in the assay on male mouse (setting [3]), the ED50 was found to be 8.2 mg/kg.

Take `CN(C)CCC=C1c2ccccc2CCc2ccccc21` [amitriptyline, reference compound]: the ED50 in the assay on mice [1] was 1.5 mg/kg.

Take `CC(C)=CCN1CCC2(C)c3cc(O)ccc3CC1C2C` (centres unmarked) [pentazocine, reference compound]: the ED50 in the assay with mice [2] (setting [5]) was 1.3 mg/kg.

For `c1ccc(-n2nc(N3CCNCC3)c3ccccc32)cc1` [1-Phenyl-3-(1-piperazinyl)-1H-indazole hydrocloride], the “% inhibition of convulsions at indicated dosage” value in the assay on male mouse (60 mg/kg, i.p., male mouse) came out at 100% @ 60 mg/kg*. The ED50 is 0.7 mg/kg in the assay with mice [2] (setting [4]) and 25.4 mg/kg in the assay on mice [1].

The record behind these values is patent EP0302423A2, “1-Phenyl-3-(1-piperazinyl)-1h-indazoles, a process and intermediates for their preparation, and the use thereof as medicaments” (HOECHST-ROUSSEL PHARMACEUTICALS INCORPORATED, priority 1987, dated 1989).
